# Test results reported in US20200017496A1 (priority 2017, published 2020).
# Where two headings read alike, the source gives them in different places.
# Tests used:
# Experiment in all cases: MIC of compounds alone and combined with antibacterials, broth microdilution (CLSI)
# Type in all cases: cell-based
# [1] = tested on: Enterobacter cloacae (ECL) isolates; settings: for MIC: Enterobacter cloacae, ATB alone
# Outline: (§1)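 Compound MIC, and antibacterial MIC at each fixed compound level, taken by visual inspection as lowest concentration stopping growth. Inoculum: log-phase bacteria, final 5·10^5 CFU/mL, cation-adjusted Mueller-Hinton broth; 16-20 h, 35° C, ambient air.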
# [2] = tested on: Salmonella typhimurium (STY) isolates
# Outline: as §1
# [3] = tested on: Escherichia coli (ECO) isolates; settings: AF1 @ 4 μg/mL
# Outline: as §1
smiles,measurement,setting,value
"CO/N=C(\C(=O)N[C@@H]1C(=O)N2C(C(=O)O)=C(COC(N)=O)CS[C@H]12)c1ccco1 [FUR, Cefuroxime]",MIC ATB in combination,"[1]; ECL 190408, AF1 @ 4 μg/mL",4 µg/mL
same,MIC ATB in combination,"[1]; ECL 200322, AF1 @ 4 μg/mL",32 µg/mL
same,MIC ATB in combination,"[1]; ECL 260508, AF1 @ 4 μg/mL",32 µg/mL
same,MIC ATB in combination,"[1]; ECL P99, AF1 @ 4 μg/mL",64 µg/mL
same,MIC ATB in combination,"[1]; ECL UFR12, AF1 @ 4 μg/mL",16 µg/mL
same,MIC ATB in combination,"[1]; ECL UFR60, AF1 @ 4 μg/mL",64 µg/mL
same,MIC ATB in combination,"[1]; ECL UFR70, AF1 @ 4 μg/mL",32 µg/mL
same,MIC ATB in combination,"[1]; ECL UFR194, AF1 @ 4 μg/mL",32 µg/mL
same,MIC ATB in combination,"[1]; ECL UFR200, AF1 @ 4 μg/mL",16 µg/mL
same,MIC,"[1]; strain ECL UFR197 (TEM-1, CTX-M-15, OXA-1, OXA-48)",> 256 µg/mL
same,MIC,"[1]; strain ECL UFR198 (TEM-1, SHV-12, CTX-M-15, DHA-1, OXA-1, OXA-48)",> 256 µg/mL
same,MIC,[1]; strain ECL 2185D (OXA-163),> 256 µg/mL
same,MIC,[1]; strain ECL 190310 (AmpC),> 256 µg/mL
same,MIC,"[1]; strain ECL 190408 (TEM-1, CTX-M-15, OXA-1)",> 256 µg/mL
same,MIC,[1]; strain ECL 200138 (AmpC),> 256 µg/mL
same,MIC,"[1]; strain ECL 200322 (TEM-1, CTX-M-15, OXA-1)",> 256 µg/mL
same,MIC,[1]; strain ECL 260033 (AmpC),> 256 µg/mL
same,MIC,"[1]; strain ECL 260253 (TEM-1, KPC-3)",> 256 µg/mL
same,MIC,[1]; strain ECL 260323 (AmpC),> 256 µg/mL
same,MIC,"[1]; strain ECL 260508 (TEM-1, CTX-M-15)",> 256 µg/mL
same,MIC,[1]; strain ECL NEM146383 (AmpC),> 256 µg/mL
same,MIC,"[1]; strain ECL P99 (AmpC), read-out: MIC",> 512 µg/mL
same,MIC,"[1]; strain ECL UFR12 (CTX-M-9, OXA-48)",> 256 µg/mL
same,MIC,"[1]; strain ECL UFR13 (TEM-1, SHV-12, CTX-M-9, OXA-48)",> 256 µg/mL
same,MIC,"[1]; strain ECL UFR14 (TEM-1, SHV-12, CTX-M-15, DHA-1, OXA-1, OXA-48)",> 256 µg/mL
same,MIC,"[1]; strain ECL UFR60 (TEM-1, CTX-M-15, KPC-2)",> 256 µg/mL
same,MIC,"[1]; strain ECL UFR70 (TEM-1, CTX-M-15, CMY-2, OXA-1, Porin loss)",> 256 µg/mL
same,MIC,"[1]; strain ECL UFR84 (TEM-1, AmpC, OXA-1)",> 256 µg/mL
same,MIC,"[1]; strain ECL UFR85 (TEM-1, CTX-M-15, AmpC)",> 256 µg/mL
same,MIC,[1]; strain ECL UFR194 (OXA-48),32 µg/mL
same,MIC,"[1]; strain ECL UFR195 (TEM-1, CTX-M-15, OXA-1, OXA-48)",> 256 µg/mL
same,MIC,"[1]; strain ECL UFR196 (TEM-1, CTX-M-15, OXA-1, OXA-48)",> 256 µg/mL
same,MIC,"[1]; strain ECL UFR200 (TEM-1, SHV-12, KPC-2)",> 256 µg/mL
same,MIC ATB in combination,"[1]; strain ECL UFR195, antibacterial combined with AF1 @ 4 μg/mL",32 µg/mL
same,MIC ATB in combination,"[1]; strain ECL UFR196, antibacterial combined with AF1 @ 4 μg/mL",64 µg/mL
same,MIC ATB in combination,"[1]; strain ECL UFR197, antibacterial combined with AF1 @ 4 μg/mL",64 µg/mL
same,MIC ATB in combination,"[2]; STY S3371, AF1 @ 4 μg/mL",4 µg/mL
same,MIC,"[2]; Salmonella enterica, TYPHIMURIUM, strain STY S3371 (OXA-1), ATB alone",32 µg/mL
same,MIC ATB in combination,[3]; ECO 4133,4 µg/mL
same,MIC ATB in combination,[3]; ECO 5302,4 µg/mL
same,MIC ATB in combination,[3]; ECO 131119,4 µg/mL
same,MIC ATB in combination,[3]; ECO 180070,4 µg/mL
same,MIC ATB in combination,[3]; ECO 190314,4 µg/mL
same,MIC ATB in combination,[3]; ECO 190317,4 µg/mL
same,MIC ATB in combination,[3]; ECO 190457,8 µg/mL
same,MIC ATB in combination,[3]; ECO 190549,2 µg/mL
same,MIC ATB in combination,[3]; ECO 200159,2 µg/mL
same,MIC ATB in combination,[3]; ECO 200259,2 µg/mL
same,MIC ATB in combination,[3]; ECO 200344,4 µg/mL
same,MIC ATB in combination,[3]; ECO 260096,4 µg/mL
same,MIC ATB in combination,[3]; ECO 260304,4 µg/mL
same,MIC ATB in combination,[3]; ECO 260508,2 µg/mL
same,MIC ATB in combination,[3]; ECO RGN238,8 µg/mL
same,MIC ATB in combination,[3]; ECO UFR15,2 µg/mL
same,MIC ATB in combination,[3]; ECO UFR16,16 µg/mL
same,MIC ATB in combination,[3]; ECO UFR18,32 µg/mL
same,MIC ATB in combination,[3]; ECO UFR19,16 µg/mL
same,MIC ATB in combination,[3]; ECO UFR20,64 µg/mL
same,MIC ATB in combination,[3]; ECO UFR61O,8 µg/mL
same,MIC ATB in combination,[3]; ECO UFR62,8 µg/mL
same,MIC ATB in combination,[3]; ECO UFR74,16 µg/mL
same,MIC ATB in combination,[3]; ECO UFR86,32 µg/mL
same,MIC ATB in combination,[3]; ECO UFR174,2 µg/mL
same,MIC ATB in combination,[3]; ECO UFR175,8 µg/mL
same,MIC ATB in combination,[3]; ECO UFR176,4 µg/mL
same,MIC ATB in combination,[3]; ECO UFR184,64 µg/mL
same,MIC ATB in combination,[3]; ECO UFR186,16 µg/mL
same,MIC ATB in combination,[3]; ECO UFR187,8 µg/mL
